The text below walks through data of patent US9937145B2, “Sulfamate derivative compound for use in preventing or treating epilepsy” (Bio-Pharm Solutions Co., Ltd., priority 2013, dated 2018).

Broadly, the ED50 is the dose that gives a 50% effect, or the effect in half of the subjects. A higher ED50 goes with weaker potency.

Where two headings read alike, the source gives them in different places. Marks after values point to notes of the source that are not given here.

The test system of one experiment is male SD rats. The experiment in a line: MES test (anti-epilepsy activity), rats, oral (rMES po). Particulars: for rMES(po) Protection %: 3 rats; for ED50: Rattus norvegicus, rats, at peak time. It counts as in vivo. How it is done:
(§1) Biological Experimental Example. 1: Measurement of Anti-Epilepsy Activity (MES-Test)
(§2) In the MES test (Ref., G. Villetti et al. Neuropharmacology 40(2001) 866-878), an electrical stimulus (mice: 50 mA, 60 Hz, 0.2 sec, and rats: 150 mA, 60 Hz, 0.2 sec in the test animal) supplied by an 11 A Shocker (IITC Life Science Company) was delivered through corneal electrodes. All mice or rats assigned to any electroshock at peak time were treated with each test compound sample which was dissolved in 20% tween 80 prepared by saline solvent applied orally before the test. […] Three doses of the test sample were administered orally to 9-18 animals (3-6 mice per dose) for evaluating the respective doses at which 50% of the animals were protected from seizure (ED50). The ED50 value (median effective close) was calculated by Litchfield and Wicoxon log-probit method which is a dose-response relationship. Experimental animals, male ICR mice and male SD rats, were purchased from OrientBio, Samtako, or Nara Biotech, Korea, and housed in cages (4-5 mice or 3 rats per cage) for 4-5 days. The range of mice body weight was between 19 and 25 grams and range of rats body weight was between 100 and 130 grams.
(§3) The obtained results are shown as mean±sem. The difference between the groups was statistically analyzed by ANOVA, and then further examined by Dunnett's test or Bonferroni test. If p is less than 0.05, it was determined that the difference between the groups had statistical significance.
(§4) The results of anti-epileptic activity of the sulfamate derivative compounds measured in the above Experimental Example are shown in the following Tables 4 and 5.

The next experiment relates to male ICR mice. The experiment in a line: MES test (anti-epilepsy activity), mice, oral (mMES po). It counts as in vivo. The conditions noted are these: Mus musculus; for ED50: mice, at peak time; for responders at 50 mg/kg: injection amount 50 mg/kg; for responders at 100 mg/kg: injection amount 100 mg/kg. How it is done:
as §1, §2, §3, §4

The mark [1] stands for this setting: 3 mice, read-out: mMES(po) Protection %.
The mark [2] stands for this setting: 4 mice, read-out: mMES(po) Protection %.

As to `CC1(C)O[C@@H](COS([NH-])(=O)=O)[C@H](c2ccccc2Cl)O1.[Na+]` [Example 177, sodium ((((4S,5S)-5-(2-chlorophenyl)-2,2-dimethyl-1,3-dioxolan-4-yl)methoxy)sulfonyl)amide], in the experiment with male SD rats (injection amount 3.5 mg/kg), the “rMES(po) Protection %” value is recorded as 3.5^a (100%). Take `NS(=O)(=O)OC[C@@H]1OC(=O)O[C@H]1c1ccccc1[N+](=O)[O-]` [Example 90, ((4S, 5S)-5-(2-nitrophenyl)-2-oxo-1,3-dioxolan-4-yl)methyl sulfamate]: the ED50 worked out at 1.1 mg/kg in the experiment on male SD rats and 9.2 mg/kg in the experiment on male ICR mice. Regarding `CC1(C)O[C@@H](COS(N)(=O)=O)[C@H](c2ccc(Cl)s2)O1` [Example 172, ((4S, 5R)-2,2-dimethyl-5-(5-chlorothiophen-2-yl)-1,3-dioxolan-4-yl)methylsulfamate], the ED50 amounted to 4.7 mg/kg with male SD rats and 30.2 mg/kg in the experiment with male ICR mice. The matching figures for `Nc1ccccc1[C@@H]1OC2(CCCC2)O[C@H]1COS(N)(=O)=O` [Example 72, ((2S, 3S)-3-(2-aminophenyl)-1,4-dioxaspiro[4,4]nonan-2-yl)methyl sulfamate]: 1 mg/kg and 14.2 mg/kg. In turn, `CC1(C)OC(COS(N)(=O)=O)C(c2ccccc2Cl)O1` (mixture of isomers) [Example 4, (5-(2-chlorophenyl)-2,2-dimethyl-1,3-dioxolan-4-yl)methyl sulfamate(SR & RS mixture)] yielded an ED50 in the experiment with male SD rats of 5.2 mg/kg. In addition, the responders at 50 mg/kg in the experiment with male ICR mice (setting [1]) is 33%.

As for `Cc1nc(Cl)sc1[C@H]1OC(C)(C)O[C@@H]1COS(N)(=O)=O` [Example 169, ((4R, 5S)-2,2-dimethyl-5-(2-chloro-4-methylthiazol-5-yl)-1,3-dioxolan-4-yl)methylsulfamate], the “rMES(po) Protection %” value in the experiment with male SD rats (injection amount 15 mg/kg) is reported as 15^a (100%). Further, the responders at 30 mg/kg with male ICR mice (injection amount 30 mg/kg, 3 mice, read-out: mMES(po) Protection %) was 100%. Take `CC1(C)O[C@@H](COS(N)(=O)=O)[C@H](c2cnc(Cl)s2)O1` [Example 166, ((4R, 5S)-5-(2-chlorothiazol-5-yl)-2,2-dimethyl-1,3-dioxolan-4-yl)methylsulfamate]: it took a dose of 1.9 mg/kg to reach the 50% effect level in the experiment on male SD rats (ED50). The responders at 100 mg/kg in the experiment with male ICR mice (setting [1]) is 100%. `CC1(C)O[C@H](c2sc(Cl)nc2Cl)[C@@H](COS(N)(=O)=O)O1` [Example 163, ((4R, 5S)-5-(2,4-dichlorothiazol-5-yl)-2,2-dimethyl-1,3-dioxolan-4-yl)methyl sulfamate]: it took a dose of 6.5 mg/kg to reach the 50% effect level with male SD rats (ED50). Also, in the experiment on male ICR mice (setting [2]), the responders at 50 mg/kg is 50%. With `CC1(C)OC(COS(N)(=O)=O)C(c2ccncc2Cl)O1` (stereo not shown) [Example 173, (5-(3-chloropyridin-4-yl)-2,2-dimethyl-1,3-dioxolan-4-yl)methylsulfamate], the responders at 100 mg/kg with male ICR mice (setting [1]) worked out at 100%. Take `CC1(C)O[C@@H](COS(N)(=O)=O)[C@H](c2sc(Cl)nc2Cl)O1` [Example 164, ((4S, 5R)-5-(2,4-dichlorothiazol-5-yl)-2,2-dimethyl-1,3-dioxolan-4-yl)methyl sulfamate]: the ED50 in the experiment on male SD rats is 13.2 mg/kg. The responders at 50 mg/kg with male ICR mice (setting [1]) came out at 100%.

On to `CCC1(CC)O[C@@H](COS(N)(=O)=O)[C@H](c2ccccc2)O1` [Example 108, ((4S, 5S)-5-phenyl-2,2-diethyl-1,3-dioxolan-4-yl)methyl sulfamate], for which, in the experiment on male ICR mice (setting [1]), the responders at 50 mg/kg worked out at 100%. Consider `CC1(C)O[C@H](COS(N)(=O)=O)[C@H](c2ccccc2Cl)O1` [Example 161, ((4R, 5S)-5-(2-chlorophenyl)-2,2-dimethyl-1,3-dioxolan-4-yl)methyl sulfamate], for which the responders at 100 mg/kg with male ICR mice (setting [1]) worked out at 100%.

Regarding `NS(=O)(=O)OCC[C@@H]1OC2(CCCC2)O[C@H]1c1ccccc1Cl` [Example 158, 2-((2S, 3S)-3-(2-chlorophenyl)-1,4-dioxaspiro[4,4]nonan-2-yl)ethyl sulfamate], the responders at 50 mg/kg in the experiment on male ICR mice (setting [1]) was found to be 100%. For `NS(=O)(=O)OC[C@@H]1OC2(CCCC2)O[C@H]1c1ccccc1` [Example 110, ((2S, 3S)-3-phenyl-1,4-dioxaspiro[4,4]nonan-2-yl)methyl sulfamate], the responders at 9 mg/kg in the experiment on male ICR mice (injection amount 9 mg/kg, 3 mice, read-out: mMES(po) Protection %) stood at 33.3%. Take `CC1(C)O[C@H](COS(N)(=O)=O)[C@@H](Cc2ccccc2Cl)O1` [Example 146, ((4R, 5R)-5-(2-chlorobenzyl)-2,2-dimethyl-1,3-dioxolan-4-yl)methyl sulfamate]: the responders at 50 mg/kg in the experiment with male ICR mice (setting [1]) came to 66.6%.

Consider `NS(=O)(=O)OC[C@@H]1OC2(CCCCC2)O[C@H]1c1ccccc1Cl` [Example 12, ((2S, 3S)-3-(2-chlorophenyl)-1,4-dioxaspiro[4,5]decan-2-yl)methyl sulfamate], for which, in the experiment with male ICR mice (setting [2]), the responders at 50 mg/kg stood at 100%.

Compound `Cc1ncsc1[C@@H]1OC(C)(C)O[C@H]1COS(N)(=O)=O` [Example 168, ((4S, 5R)-2,2-dimethyl-5-(4-methylthiazol-5-yl)-1,3-dioxolan-4-yl)methylsulfamate] displayed an ED50 with male SD rats of 4.9 mg/kg. Further, the responders at 100 mg/kg in the experiment with male ICR mice (setting [1]) turned out to be 100%. Regarding `CC1(C)OC(COS(N)(=O)=O)C(c2cnccc2Cl)O1` (stereo not shown) [Example 174, (5-(4-chloropyridin-3-yl)-2,2-dimethyl-1,3-dioxolan-4-yl)methylsulfamate], the responders at 100 mg/kg with male ICR mice (setting [1]) is 100%.

For the compound `NS(=O)(=O)OCC[C@@H]1OC2(CCCC2)O[C@H]1c1ccccc1` [Example 134, 2-((2S, 3S)-3-phenyl-1,4-dioxaspiro[4,4]nonan-2-yl)ethyl sulfamate], in the experiment with male ICR mice (setting [1]), the responders at 50 mg/kg amounted to 100%.

The compound `CC1(C)OC(COS(N)(=O)=O)C(c2ccccc2Cl)O1` (mixture of isomers) [Example 3, (5-(2-chlorophenyl)-2,2-dimethyl-1,3-dioxolan-4-yl)methyl sulfamate(SS & RR mixture)] yielded an ED50 in the experiment with male ICR mice of 14 mg/kg. `Cc1ccccc1[C@@H]1OC(C)(C)O[C@H]1COS(N)(=O)=O` [Example 92, ((4S, 5S)-5-(2-methylphenyl)-2,2-dimethyl-1,3-dioxolan-4-yl)methyl sulfamate]: the responders at 50 mg/kg in the experiment on male ICR mice (setting [1]) amounted to 100%. Take `CC1O[C@@H](COS(N)(=O)=O)[C@H](c2ccccc2Cl)O1` (stereo partly drawn) [Example 6, ((4S, 5S)-5-(2-chlorophenyl)-2-methyl-1,3-dioxolan-4-yl)methyl sulfamate]: the responders at 50 mg/kg with male ICR mice (setting [1]) is 33%.

For the compound `CC1(C)O[C@H](c2ccccc2I)[C@@H](COS(N)(=O)=O)O1` [Example 27, ((4R, 5R)-5-(2-iodophenyl)-2,2-dimethyl-1,3-dioxolan-4-yl)methyl sulfamate], in the experiment on male ICR mice, the 50% effect level (ED50) was put at a dose of 27.6 mg/kg. On to `NS(=O)(=O)OC[C@H]1OC2(CCCC2)O[C@@H]1Cc1ccccc1` [Example 126, ((2R, 3R)-3-benzyl-1,4-dioxaspiro[4,4]nonan-2-yl)methyl sulfamate], for which, in the experiment on male ICR mice (setting [1]), the responders at 50 mg/kg was 100%.

On to `Cc1nc(Cl)sc1[C@@H]1OC(C)(C)O[C@H]1COS(N)(=O)=O` [Example 170, ((4S, 5R)-2,2-dimethyl-5-(2-chloro-4-methylthiazol-5-yl)-1,3-dioxolan-4-yl)methylsulfamate], for which, in the experiment with male ICR mice (setting [1]), the responders at 100 mg/kg was 100%. Regarding `NS(=O)(=O)OCC[C@H]1OC2(CCCC2)O[C@@H]1Cc1ccccc1` [Example 118, 2-((2R, 3R)-3-benzyl-1,4-dioxaspiro[4,4]nonan-2-yl)ethyl sulfamate], the responders at 80 mg/kg in the experiment on male ICR mice (injection amount 80 mg/kg, 3 mice, read-out: mMES(po) Protection %) is 66.6%. Take `CC1(C)O[C@@H](COS(N)(=O)=O)[C@H](c2ccccc2F)O1` [Example 16, ((4S, 5S)-5-(2-fluorophenyl)-2,2-dimethyl-1,3-dioxolan-4-yl)methyl sulfamate]: in the experiment on male SD rats, it took a dose of 7.7 mg/kg to reach the 50% effect level (ED50). In addition, the responders at 50 mg/kg in the experiment with male ICR mice (setting [1]) came to 100%. Regarding `CC1(C)O[C@@H](COS(=O)(=O)[NH][Na])[C@H](c2ccccc2N)O1` [Example 66], the ED50 with male SD rats turned out to be 11.8 mg/kg; in the experiment with male ICR mice, 12.3 mg/kg. Turning to `CC1(C)O[C@H](c2cnc(Cl)s2)[C@@H](COS(N)(=O)=O)O1` [Example 165, ((4R, 5S)-5-(2-chlorothiazol-5-yl)-2,2-dimethyl-1,3-dioxolan-4-yl)methylsulfamate], the responders at 100 mg/kg in the experiment on male ICR mice (setting [1]) turned out to be 100%.

In the case of `CC1(C)O[C@@H](CCOS(N)(=O)=O)[C@H](c2ccccc2)O1` [Example 130, 2-((4S, 5S)-5-phenyl-2,2-dimethyl-1,3-dioxolan-4-yl)ethyl sulfamate], the responders at 50 mg/kg in the experiment with male ICR mice (setting [1]) stood at 33.3%. Turning to `Nc1ccccc1[C@@H]1OC2(CCCCC2)O[C@H]1COS(N)(=O)=O` [Example 74, ((2S, 3S)-3-(2-aminophenyl)-1,4-dioxaspiro[4,5]decan-2-yl)methyl sulfamate], in the experiment on male ICR mice, the ED50 was 14.5 mg/kg. In the case of `CCC1(CC)O[C@H](CCOS(N)(=O)=O)[C@@H](Cc2ccccc2)O1` [Example 116, 2-((4R, 5R)-5-benzyl-2,2-diethyl-1,3-dioxolan-4-yl)ethyl sulfamate], the responders at 150 mg/kg in the experiment with male ICR mice (injection amount 150 mg/kg, 3 mice, read-out: mMES(po) Protection %) was 33.3%.
